Patent publication USRE48335E1, “Polymyxin derivatives as antimicrobial compounds” (priority 2014, dated 2020)
≈ marks a conversion by molar mass, not a printed value. Positions of bridges follow the written chain, without caps; N, C: chain ends. Non-standard residues stand in square brackets, D forms with d. Residues, ends and D or L forms follow the SMILES beside them. *: point of attachment. Benzoyl(3-CF3) = O=C(c1cccc(C(F)(F)F)c1)*; Benzoyl(4-Cl) = O=C(c1ccc(Cl)cc1)*; Octanoyl = CCCCCCCC(=O)*; Dab = NCC[C@H](N)C(=O)O; Abu = CC[C@H](N)C(=O)O; Dap = NC[C@H](N)C(=O)O

Tests used:
Acinetobacter baumannii = system: Acinetobacter baumannii
In short: (§1)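 Read-out is the MIC, obtained by broth microdilution under CLSI guidance. Lipopeptides (TFA salt form) were diluted in cation-adjusted Mueller-Hinton broth, with polymyxin B sulphate run alongside as control.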

Enterobacter cloacae = system: Enterobacter cloacae
In short: as §1

Klebsiella pneumoniae = system: Klebsiella pneumoniae
In short: as §1

Pseudomonas aeruginosa = system: Pseudomonas aeruginosa
In short: as §1

A. baumannii ATCC 19606 = assay: In vivo efficacy in mouse blood infection model (neutropenic Swiss mice); settings: compound, free base 4 mg/kg intravenously 2 h after inoculation, blood at 4 h
In short: (§2)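 Neutropenic Swiss mice (cyclophosphamide 150 mg/kg day −4, 100 mg/kg day −1, i.p.) infected i.v. with early log-phase bacteria; 4 mg/kg free base i.v. given 2 h post-inoculation. Blood CFU by cardiac puncture 4 h post-dose; Δlog10 CFU/mL treated versus saline controls.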

P. aeruginosa ATCC 27853 = assay: as above; settings: compound, free base 4 mg/kg intravenously 2 h after inoculation, blood at 4 h
In short: as §2

CC[C@@H]1NC(=O)[C@@H](CC(C)C)NC(=O)[C@H](CCN)NC(=O)[C@@H](NC(=O)[C@@H](CO)NC(=O)[C@@H](NC(=O)[C@H](CCN)NC(=O)c2cccc(C(F)(F)F)c2)[C@@H](C)O)CCNC(=O)[C@H]([C@@H](C)O)NC(=O)[C@H](CCN)NC(=O)[C@H](CCN)NC1=O [Compound 18] ({Benzoyl(3-CF3)}-[Dab]T[dS][Dab][Dab][dL][Abu][Dab][Dab]T; lactam 4-C)
MIC (Acinetobacter baumannii): 0.5 µg/mL (≈ 0.431 µM) | Minimum inhibitory concentration, Ab A ATCC 17978 (Acinetobacter baumannii): 0.5 µg/mL (≈ 0.431 µM) | Minimum inhibitory concentration, Ab ATCC 19606 (Acinetobacter baumannii): 0.5 µg/mL (≈ 0.431 µM) | Minimum inhibitory concentration, Ab FADDI-AB034 (Acinetobacter baumannii): 0.5 µg/mL (≈ 0.431 µM) | Minimum inhibitory concentration, Ec FADDI-EC001 (Enterobacter cloacae): 1 µg/mL (≈ 0.862 µM) | Minimum inhibitory concentration, Ec FADDI-EC003 (Enterobacter cloacae): 0.5 µg/mL (≈ 0.431 µM) | Minimum inhibitory concentration, Ec FADDI-EC006 (Enterobacter cloacae): 0.5 µg/mL (≈ 0.431 µM) | MIC (Klebsiella pneumoniae): 0.25 µg/mL (≈ 0.215 µM) | MIC (Pseudomonas aeruginosa): 8 µg/mL (≈ 6.89 µM) | Minimum inhibitory concentration, Pa ATCC 27853 (Pseudomonas aeruginosa): 8 µg/mL (≈ 6.89 µM) | Minimum inhibitory concentration, Pa FADDI-PA022 (Pseudomonas aeruginosa): 8 µg/mL (≈ 6.89 µM) | Minimum inhibitory concentration, Pa FADDI-PA025 (Pseudomonas aeruginosa): 2 µg/mL (≈ 1.72 µM) | Δ log (Treated-Control at 4 h) (A. baumannii ATCC 19606): −1.57 log10 CFU/mL

CC(C)C[C@H]1NC(=O)[C@H](CCN)NC(=O)[C@@H](NC(=O)[C@@H](CO)NC(=O)[C@@H](NC(=O)[C@H](CCN)NC(=O)c2cccc(C(F)(F)F)c2)[C@@H](C)O)CCNC(=O)[C@H]([C@@H](C)O)NC(=O)[C@H](CCN)NC(=O)[C@H](CCN)NC(=O)[C@H]([C@@H](C)O)NC1=O [Compound 19] ({Benzoyl(3-CF3)}-[Dab]T[dS][Dab][Dab][dL]T[Dab][Dab]T; lactam 4-C)
MIC (Acinetobacter baumannii): 2 µg/mL (≈ 1.7 µM) | Minimum inhibitory concentration, Ab A ATCC 17978 (Acinetobacter baumannii): 0.5 µg/mL (≈ 0.425 µM) | Minimum inhibitory concentration, Ab ATCC 19606 (Acinetobacter baumannii): 2 µg/mL (≈ 1.7 µM) | Minimum inhibitory concentration, Ab FADDI-AB034 (Acinetobacter baumannii): 4 µg/mL (≈ 3.4 µM) | Minimum inhibitory concentration, Ec FADDI-EC001 (Enterobacter cloacae): 1 µg/mL (≈ 0.85 µM) | Minimum inhibitory concentration, Ec FADDI-EC003 (Enterobacter cloacae): 0.5 µg/mL (≈ 0.425 µM) | Minimum inhibitory concentration, Ec FADDI-EC006 (Enterobacter cloacae): 0.5 µg/mL (≈ 0.425 µM) | MIC (Klebsiella pneumoniae): 0.5 µg/mL (≈ 0.425 µM) | MIC (Pseudomonas aeruginosa): 32 µg/mL (≈ 27.2 µM) | Minimum inhibitory concentration, Pa ATCC 27853 (Pseudomonas aeruginosa): 32 µg/mL (≈ 27.2 µM) | Minimum inhibitory concentration, Pa FADDI-PA022 (Pseudomonas aeruginosa): 16 µg/mL (≈ 13.6 µM) | Minimum inhibitory concentration, Pa FADDI-PA025 (Pseudomonas aeruginosa): >32 µg/mL | Δ log (Treated-Control at 4 h) (A. baumannii ATCC 19606): −1.58 log10 CFU/mL

CCCCCCCC(=O)N[C@@H](CCN)C(=O)N[C@H](C(=O)N[C@@H](CCN)C(=O)N[C@H]1CCNC(=O)[C@H]([C@@H](C)O)NC(=O)[C@H](CCN)NC(=O)[C@H](CCN)NC(=O)[C@H](C)NC(=O)[C@@H](CC(C)C)NC(=O)[C@H](CCN)NC1=O)[C@@H](C)O [Compound 21] (Octanoyl-[Dab]T[Dab][Dab][Dab][dL]A[Dab][Dab]T; lactam 4-C)
MIC (Acinetobacter baumannii): 1 µg/mL (≈ 0.898 µM) | Minimum inhibitory concentration, Ab A ATCC 17978 (Acinetobacter baumannii): 2 µg/mL (≈ 1.8 µM) | Minimum inhibitory concentration, Ab ATCC 19606 (Acinetobacter baumannii): 1 µg/mL (≈ 0.898 µM) | Minimum inhibitory concentration, Ab FADDI-AB034 (Acinetobacter baumannii): 0.5 µg/mL (≈ 0.449 µM) | Minimum inhibitory concentration, Ec FADDI-EC001 (Enterobacter cloacae): 0.125 µg/mL (≈ 0.112 µM) | Minimum inhibitory concentration, Ec FADDI-EC003 (Enterobacter cloacae): 0.125 µg/mL (≈ 0.112 µM) | Minimum inhibitory concentration, Ec FADDI-EC006 (Enterobacter cloacae): 0.125 µg/mL (≈ 0.112 µM) | MIC (Klebsiella pneumoniae): 0.25 µg/mL (≈ 0.225 µM) | MIC (Pseudomonas aeruginosa): 0.5 µg/mL (≈ 0.449 µM) | Minimum inhibitory concentration, Pa ATCC 27853 (Pseudomonas aeruginosa): 0.5 µg/mL (≈ 0.449 µM) | Minimum inhibitory concentration, Pa FADDI-PA022 (Pseudomonas aeruginosa): 0.5 µg/mL (≈ 0.449 µM) | Minimum inhibitory concentration, Pa FADDI-PA025 (Pseudomonas aeruginosa): >32 µg/mL | Δ log (Treated-Control at 4 h) (A. baumannii ATCC 19606): −2.43 log10 CFU/mL | Δ log (Treated-Control at 4 h) (P. aeruginosa ATCC 27853): −2.26 log10 CFU/mL

CC[C@@H]1NC(=O)[C@@H](CC(C)C)NC(=O)[C@H](CCN)NC(=O)[C@@H](NC(=O)[C@H](CN)NC(=O)[C@@H](NC(=O)[C@H](CCN)NC(=O)c2ccc(Cl)cc2)[C@@H](C)O)CCNC(=O)[C@H]([C@@H](C)O)NC(=O)[C@H](CCN)NC(=O)[C@H](CCN)NC1=O [Compound 94] ({Benzoyl(4-Cl)}-[Dab]T[Dap][Dab][Dab][dL][Abu][Dab][Dab]T; lactam 4-C)
MIC (Acinetobacter baumannii): 1 µg/mL (≈ 0.888 µM) | Minimum inhibitory concentration, Ab A ATCC 17978 (Acinetobacter baumannii): 0.5 µg/mL (≈ 0.444 µM) | Minimum inhibitory concentration, Ab ATCC 19606 (Acinetobacter baumannii): 1 µg/mL (≈ 0.888 µM) | Minimum inhibitory concentration, Ab FADDI-AB034 (Acinetobacter baumannii): 0.25 µg/mL (≈ 0.222 µM) | Minimum inhibitory concentration, Ec FADDI-EC001 (Enterobacter cloacae): 0.25 µg/mL (≈ 0.222 µM) | Minimum inhibitory concentration, Ec FADDI-EC003 (Enterobacter cloacae): 0.25 µg/mL (≈ 0.222 µM) | Minimum inhibitory concentration, Ec FADDI-EC006 (Enterobacter cloacae): 0.5 µg/mL (≈ 0.444 µM) | MIC (Klebsiella pneumoniae): 0.25 µg/mL (≈ 0.222 µM) | MIC (Pseudomonas aeruginosa): 0.5 µg/mL (≈ 0.444 µM) | Minimum inhibitory concentration, Pa ATCC 27853 (Pseudomonas aeruginosa): 0.5 µg/mL (≈ 0.444 µM) | Minimum inhibitory concentration, Pa FADDI-PA022 (Pseudomonas aeruginosa): 0.5 µg/mL (≈ 0.444 µM) | Minimum inhibitory concentration, Pa FADDI-PA025 (Pseudomonas aeruginosa): 2 µg/mL (≈ 1.78 µM) | Δ log (Treated-Control at 4 h) (A. baumannii ATCC 19606): −1.26 log10 CFU/mL | Δ log (Treated-Control at 4 h) (P. aeruginosa ATCC 27853): −3.23 log10 CFU/mL
